For the assay, the target named is RIPK1 (recombinant GST-RIPK1 kinase domain, residues 1-327) (Homo sapiens (Human), UniProt Q13546). As to the kind of experiment: RIPK1-ADP-Glo Enzymatic Assay. The class given is biochemical. As to conditions: ADP-Glo; 25 nM GST-RIPK1, 300 μM ATP; assay lower limit ~25 nM; read-out: RIPK1 V0 Ec50. The gist of the method: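 Luminescent ADP-Glo readout of ATP-to-ADP conversion. Conditions: 25 nM enzyme, 300 μM ATP, 3 μM dephospho-MBP, pH 7.3 HEPES buffer with 20 mM MgCl2; 30 min compound pre-incubation, 150 min reaction. EC50 via four-parameter sigmoidal regression; assay floor ~25 nM.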
Sequence of RIPK1 (recombinant GST-RIPK1 kinase domain, residues 1-327) (Q13546 1-327): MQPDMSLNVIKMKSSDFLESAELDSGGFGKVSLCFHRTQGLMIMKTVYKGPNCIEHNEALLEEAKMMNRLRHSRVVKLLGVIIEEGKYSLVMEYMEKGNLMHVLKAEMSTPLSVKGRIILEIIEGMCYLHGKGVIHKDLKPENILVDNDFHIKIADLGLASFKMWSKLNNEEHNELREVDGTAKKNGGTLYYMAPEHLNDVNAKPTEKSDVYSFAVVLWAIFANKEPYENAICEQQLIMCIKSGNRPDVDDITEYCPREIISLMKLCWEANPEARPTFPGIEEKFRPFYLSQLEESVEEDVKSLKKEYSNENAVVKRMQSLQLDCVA

The structures appear in SMILES notation.

For the molecule `O=C(c1ccccc1)N1CCC2(O[C@@H]3CC[C@@H](c4ccccc4)N3C2=O)C(F)C1` (single isomer, unassigned) [Example 2.3, (3[S or R],4[R or S], 5′S,7a′R)-1-benzoyl-3-fluoro-5′-phenyltetrahydro-3′H-spiro[piperidine-4,2′-pyrrolo[2,1-b]oxazol]-3′-one], the EC50 is less than 0.025 µM.
For the molecule `CS(=O)(=O)C1CN(C(=O)c2nc(N3CCC4(CC3)O[C@@H]3CC[C@@H](c5cc(F)cc(F)c5)N3C4=O)ncc2F)C1` [Example 7.9, (5′S,7a′R)-5′-(3,5-difluorophenyl)-1-{5-fluoro-4-[3-(methylsulfonyl)azetidine-1-carbonyl]pyrimidin-2-yl}tetrahydro-3′H-spiro[piperidine-4,2′-pyrrolo[2,1-b][1,3]oxazol]-3′-one], the EC50 stood at 0.0726 µM.
To `O=C(c1noc2c1CCCC2)N1CCC2(CC1)O[C@@H]1CC[C@@H](c3cc(F)cc(F)c3)N1C2=O` [Example 6.17, (5′S,7a′R)-5′-(3,5-difluorophenyl)-1-(4,5,6,7-tetrahydro-1,2-benoxazole-3-carbonyl)tetrahydro-3′H-spiro[piperidine-4,2′-pyrrolo[2,1-b] [1,3]oxazol]-3′-one] belongs 0.173 µM; to `COc1cccc(C(=O)N2CCC3(CC2)O[C@@H]2CC[C@@H](c4cccc(F)c4)N2C3=O)c1` [Example 6.117, (5′S,7a′R)-5′-(3-fluorophenyl)-1-(3-methoxybenzene-1-carbonyl)tetrahydro-3′H-spiro[piperidine-4,2′-pyrrolo[2,1-b] [1,3]oxazol]-3′-one], less than 0.025 µM; to `CC(C)NC(=O)c1nc(N2CCC3(CC2)O[C@@H]2CC[C@@H](c4cc(F)cc(F)c4)N2C3=O)ncc1F` [Example 7.14, 2-[(5′S,7a′R)-5′-(3,5-difluorophenyl)-3′-oxotetrahydro-1H,3′H-spiro[piperidine-4,2′-pyrrolo[2,1-b][1,3]oxazol]-1-yl]-5-fluoro-N-(propan-2-yl)pyrimidine-4-carboxamide], 0.0698 µM.
As for `O=C(c1cn2ccccc2n1)N1CCC2(CC1)O[C@@H]1CC[C@@H](c3cc(F)cc(F)c3)N1C2=O` [Example 5.71, (5′S,7a′R)-5′-(3,5-difluoro-phenyl)-1-(imidazo[1,2-a]-pyridine-2-carbonyl)tetra-hydro-3′H-spiro[piperidine-4,2′-pyrrolo[2,1-b]oxazol]-3′-one], the figure is 0.155 µM.
On to `N#Cc1nccc(N2CCC3(CC2)O[C@@H]2CC[C@@H](c4cc(F)cc(F)c4)N2C3=O)n1` [Example 4.5, 4-[(5′S,7a′R)-5′-(3,5-difluorophenyl)-3′-oxotetrahydro-1H,3′H-spiro[piperidine-4,2′-pyrrolo[2,1-b] [1,3]oxazol]-1-yl]pyrimidine-2-carbonitrile], for which the EC50 is less than 0.025 µM.
For the molecule `C#Cc1ccc(C(=O)N2CCC3(CC2)O[C@@H]2CC[C@@H](c4cc(F)cc(F)c4)N2C3=O)cc1` [Example 5.27, (5′S,7a′R)-5′-(3,5-difluoro-phenyl)-1-(4-ethynyl-benzoyl)tetrahydro-3′H-spiro[piperidine-4,2′-pyrrolo[2,1-b]oxazol]-3′-one], the EC50 is 0.17 µM.
Take `O=C1N2[C@@H](CC[C@H]2c2ccccc2)OC12CCN(c1ncc(F)cc1C(F)F)CC2` [Example 11.25, (5′S,7a′R)-1-[3-(difluoromethyl)-5-fluoropyridin-2-yl]-5′-phenyltetrahydro-3′H-spiro[piperidine-4,2′-pyrrolo[2,1-b][1,3]oxazol]-3′-one]: the EC50 is 0.0611 µM.
For `CCOC(=O)c1coc(-c2ccnc(N3CCC4(CC3)O[C@@H]3CC[C@@H](c5ccccc5)N3C4=O)c2)n1` [Example 4.173, ethyl 2-{2-[(5′S,7a′R)-3′-oxo-5′-phenyltetrahydro-1H,3′H-spiro[piperidine-4,2′-pyrrolo[2,1-b] [1,3]oxazol]-1-yl]pyridin-4-yl}-1,3-oxazole-4-carboxylate], the EC50 came to 0.0692 µM.

(Values after patent US12180226B2, “Spirotricycle RIPK1 inhibitors and methods of uses thereof” (Merck Sharp & Dohme LLC, priority 2021, dated 2024).)
